Data set [1] concerns recombinant NL4-3 virus (Renilla luciferase in nef) in MT-2 cells. As to the kind of experiment: whole plant or invertebrate. Particulars: luciferase activity. In kind it is cell-based, HIV. As for the experimental part: HIV cell culture assay—MT-2 cells, 293T cells and the proviral DNA clone of NL4-3 virus were obtained from the NIH AIDS Research and Reference Reagent Program. MT-2 cells were propagated in RPMI 1640 media supplemented with 10% heat inactivated fetal bovine serum (FBS), 100 μg/ml penicillin G and up to 100 units/mL streptomycin. The 293T cells were propagated in DMEM media supplemented with 10% heat inactivated FBS, 100 μg/mL penicillin G and 100 μg/mL streptomycin. A recombinant NL4-3 proviral clone, in which a section of the nef gene was replaced with the Renilla luciferase gene, was used to make the reference virus used in these studies. The recombinant virus was prepared through transfection of the recombinant NL4-3 proviral clone into 293T cells using Transit-293 Transfection Reagent from Mirus Bio LLC (Madison, Wis.). Supernatent was harvested after 2-3 days and the amount of virus present was titered in MT-2 cells using luciferase enzyme activity as a marker by measuring luciferase enzyme activity. Luciferase was quantitated using the EnduRen Live Cell Substrate from Promega (Madison, Wis.). Antiviral activities of compounds toward the recombinant virus were quantified by measuring luciferase activity in MT-2 cells infected for 4-5 days with the recombinant virus in the presence of serial dilutions of the compound.
(Johnson V A, Byington R T. Infectivity Assay. In Techniques in HIV Research. ed. Aldovini A, Walker BD. 71-76. New York: Stockton Press.1990).

Data set [2] in a line: Compound cytotoxicity, XTT-based colorimetric assay. In kind it is cell-based. Particulars: human, uninfected MT2 cells, day 4, XTT. The procedure: Compound cytotoxicity and the corresponding CC50 values were determined using the same protocol as described in the antiviral assay except that uninfected cells were used. Cytotoxicity was assessed on day 4 in uninfected MT2 cells by using a XTT (2,3-bis[2-Methoxy-4-nitro-5-sulfophenyl]-2H-tetrazolium-5-carboxyanilide inner salt)-based colorimetric assay (Sigma-Aldrich, St Louis, Mo.).
(Formazan colour is commonly taken as a measure of viable cells.)

The mark [3] stands for this setting: Renilla, NL43, MT-2 cells infected for 4-5 days with recombinant NL4-3 Renilla luciferase virus.

Each structure is given as a SMILES string. Bounds are passed on as bounds.

Take `COc1ccc(N(C)C(=O)[C@H](Cc2ccccc2)NC(=O)c2cc(C(=O)N[C@@H](Cc3ccccc3)C(=O)N(C)c3ccc(OC)cc3)on2)cc1` [Example 116]: the EC50 in data set [1] (setting [3]) is 0.71 µM. The molecule further showed a CC50 at 4 days in data set [2] of 1.5 µM.
Consider `COc1ccc(N(C)C(=O)[C@H](Cc2cc(F)cc(F)c2)NC(=O)C(C)n2c(=O)n(C(C)C(=O)N[C@@H](Cc3cc(F)cc(F)c3)C(=O)N(C)c3ccc(OC)cc3)c3ccccc32)cc1` (single isomer, unassigned) [Example 132], for which, in data set [1] (MT-2 cells infected for 4-5 days with recombinant NL4-3 Renilla luciferase virus), the EC50 amounted to 1.94 µM. Also, the CC50 at 4 days in data set [2] worked out at 7.3 µM.
On to `CN(C(=O)[C@H](Cc1cc(F)cc(F)c1)NC(=O)NS(=O)(=O)N[C@@H](Cc1cc(F)cc(F)c1)C(=O)N(C)c1ccc(C(F)(F)F)nc1)c1ccc(C(F)(F)F)nc1` [Example 199], for which, in data set [1] (setting [3]), the EC50 worked out at 0.47 µM. The CC50 at 4 days in data set [2] turned out to be 46.7 µM.
Consider `COc1ccc(N(C)C(=O)[C@H](Cc2cc(F)cc(F)c2)NC(=O)Cn2c(=O)c(=O)n(CC(=O)N[C@@H](Cc3cc(F)cc(F)c3)C(=O)N(C)c3ccc(OC)cc3)c3ccccc32)cc1` [Example 98], for which the EC50 in data set [1] (setting [3]) worked out at 0.03 µM. The molecule also returned a CC50 at 4 days in data set [2] of 11.2 µM.
With `COc1ccc(N(C)C(=O)[C@H](Cc2ccccc2)NC(=O)NS(=O)(=O)N[C@@H](Cc2ccccc2)C(=O)N2CCCC2)cc1` [Example 8], in data set [1] (setting [3]), the EC50 turned out to be 2.04 µM. The molecule also yielded a CC50 at 4 days in data set [2] of at least 33.3 µM.
For the molecule `CN(C(=O)[C@H](Cc1cc(F)cc(F)c1)NC(=O)NS(=O)(=O)N[C@@H](Cc1cc(F)cc(F)c1)C(=O)N(C)c1cccnc1)c1cccnc1` [Example 236], in data set [1] (setting [3]), the EC50 is 4.14 µM. In data set [2], this molecule displayed a CC50 at 4 days of at least 100 µM.
For `CN(C(=O)[C@H](Cc1cc(F)cc(F)c1)NC(=O)Cn1c(=O)n(CC(=O)N[C@@H](Cc2cc(F)cc(F)c2)C(=O)N(C)c2ccc3scnc3c2)c2ccccc21)c1ccc2scnc2c1` [Example 119], in that order: 0.01 µM and at least 100 µM.
Consider `C=CCN(C(=O)[C@H](Cc1cc(F)cc(F)c1)NS(=O)(=O)CCCS(=O)(=O)N[C@@H](Cc1cc(F)cc(F)c1)C(=O)N(CC=C)c1ccc(OC)cc1)c1ccc(OC)cc1` [Example 164], for which the EC50 in data set [1] (setting [3]) is 2.64 µM. In data set [2], this molecule gave a CC50 at 4 days of at least 100 µM.
Regarding `COc1ccc(N(C)C(=O)[C@H](Cc2ccccc2)NC(=O)CCC(=O)N[C@@H](Cc2ccccc2)C(=O)N(C)c2ccc(OC)cc2)cc1` [Example 21], the EC50 in data set [1] (setting [3]) was found to be 3.25 µM. For the same molecule, it took 27 µM to reach half-maximal cytotoxicity in data set [2] (CC50 at 4 days).
For `COc1ccc(N(C)C(=O)[C@H](Cc2ccccc2)NC(=O)Cc2ccc(CC(=O)N[C@@H](Cc3ccccc3)C(=O)N(C)c3ccc(OC)cc3)cc2)cc1` [Example 47], the EC50 in data set [1] (setting [3]) came to 2.76 µM. The molecule further gave a CC50 at 4 days in data set [2] of 11.1 µM.
The like results for `COc1ccc(-n2ccnc2C(Cc2ccccc2)NC(=O)CN2c3ccccc3N(CC(=O)N[C@@H](Cc3ccccc3)c3nccn3-c3ccc(OC)cc3)S2(=O)=O)cc1` (some centres unmarked) [Example 166] were, in that order, 6.7 µM and at least 100 µM.
The like results for `COc1ccc(N(C)C(=O)[C@H](Cc2ccccc2)NC(=O)/C=C\C(=O)N[C@@H](Cc2ccccc2)C(=O)N(C)c2ccc(OC)cc2)cc1` [Example 80] were, in that order, 0.16 µM and 12.8 µM.
Turning to `CN(C(=O)[C@H](Cc1cc(F)cc(F)c1)NC(=O)c1cncc(C(=O)N[C@@H](Cc2cc(F)cc(F)c2)C(=O)N(C)c2ccc3scnc3c2)c1)c1ccc2scnc2c1` [Example 129], the EC50 in data set [1] (setting [3]) was 0.01 µM. The molecule further gave a CC50 at 4 days in data set [2] of 5.3 µM.
For `C=CCN(C(=O)[C@H](Cc1cc(F)cc(F)c1)NC(=O)c1ccccc1C(=O)N[C@@H](Cc1cc(F)cc(F)c1)C(=O)N(CC=C)c1ccc(OC)cc1)c1ccc(OC)cc1` [Example 191], in that order: 1.79 µM and at least 100 µM.
The like results for `C=CCCN(C(=O)[C@H](Cc1cc(F)cc(F)c1)NC(=O)NS(=O)(=O)N[C@@H](Cc1cc(F)cc(F)c1)C(=O)N(CC=C)c1ccc(OC)cc1)c1ccc(OC)cc1` [Example 138] were, in that order, 0.26 µM and 12.9 µM.
On to `COc1ccc(N(C)C(=O)[C@H](Cc2ccccc2)NC(=O)c2cc(Br)cc(C(=O)N[C@@H](Cc3ccccc3)C(=O)N(C)c3ccc(OC)cc3)c2)cc1` [Example 110], for which, in data set [1] (setting [3]), the EC50 came out at 0.21 µM. In data set [2], the CC50 at 4 days is at least 100 µM.
Regarding `COc1ccc(-n2ccnc2[C@H](Cc2ccccc2)NC(=O)c2cccc(C(=O)N[C@@H](Cc3ccccc3)c3nccn3-c3ccc(OC)cc3)c2)cc1` [Example 161], the EC50 in data set [1] (setting [3]) turned out to be 2.8 µM. In addition, the cytotoxic concentration (CC50) at 4 days in data set [2] was 73.9 µM.
Regarding `COc1ccc(N(C)C(=O)[C@H](Cc2ccccc2)NC(=O)c2ccc(F)c(C(=O)N[C@@H](Cc3ccccc3)C(=O)N(C)c3ccc(OC)cc3)c2)cc1` [Example 106], the EC50 in data set [1] (setting [3]) was 0.05 µM. In addition, half-maximal cytotoxicity in data set [2] (CC50 at 4 days) was put at 6.3 µM.
With `COc1ccc(N(C)C(=O)[C@H](Cc2ccccc2)NC(=O)CCN2CCN(CCC(=O)N[C@@H](Cc3ccccc3)C(=O)N(C)c3ccc(OC)cc3)CC2)cc1` [Example 40], the EC50 in data set [1] (setting [3]) was 0.31 µM. In addition, in data set [2], the CC50 at 4 days came to 36 µM.
As for `COc1ccc(N(C)C(=O)[C@H](Cc2ccccc2)NC(=O)CS(=O)(=O)N[C@@H](Cc2ccccc2)C(=O)N(C)c2ccc(OC)cc2)cc1` [Example 63], the EC50 in data set [1] (setting [3]) is 1.09 µM. This molecule also yielded a CC50 at 4 days in data set [2] of 30.2 µM.
Consider `COc1ccc(N(C)C(=O)[C@H](Cc2ccccc2)NC(=O)CC2(CC(=O)N[C@@H](Cc3ccccc3)C(=O)N(C)c3ccc(OC)cc3)CCCC2)cc1` [Example 78], for which the EC50 in data set [1] (setting [3]) stood at 50 µM. Further, in data set [2], the CC50 at 4 days is at least 50 µM.
The like results for `C=CCN(C(=O)[C@H](Cc1cc(F)cc(F)c1)NS(=O)(=O)CS(=O)(=O)N[C@@H](Cc1cc(F)cc(F)c1)C(=O)N(CC=C)c1ccc(OC)cc1)c1ccc(OC)cc1` [Example 163] were, in that order, 2.56 µM and at least 100 µM.
For `CN(C(=O)[C@H](Cc1ccccc1)NC(=O)NS(=O)(=O)N[C@@H](Cc1ccccc1)C(=O)N(C)c1ccc(C(C)(C)C)cc1)c1ccc(C(C)(C)C)cc1` [Example 167], in that order: 0.27 µM and 26.5 µM.
As to `CCN(C(=O)[C@H](Cc1cc(F)cc(F)c1)NC(=O)NS(=O)(=O)N[C@@H](Cc1cc(F)cc(F)c1)C(=O)N(CC)c1ccc2scnc2c1)c1ccc2scnc2c1` [Example 152], the concentration giving a half-maximal response (EC50) in data set [1] (setting [3]) is 0.06 µM. Moreover, it took 99.3 µM to reach half-maximal cytotoxicity in data set [2] (CC50 at 4 days).
Take `COc1ccc(N(C)C(=O)[C@H](Cc2ccccc2)NC(=O)NS(=O)(=O)N[C@@H](Cc2ccccc2)c2nc(C)no2)cc1` [Example 7]: the EC50 in data set [1] (setting [3]) was 3.76 µM. For the same molecule, the CC50 at 4 days in data set [2] was at least 100 µM.
Consider `COc1ccc(N(C)C(=O)[C@H](Cc2ccccc2)NC(=O)[C@@H]2CC[C@H](C(=O)N[C@@H](Cc3ccccc3)C(=O)N(C)c3ccc(OC)cc3)C2)cc1` [Example 52], for which, in data set [1] (setting [3]), the concentration for a half-maximal effect (EC50) is 1.14 µM. Moreover, in data set [2], it took 22.6 µM to reach half-maximal cytotoxicity (CC50 at 4 days).
For the molecule `CCc1ncc(N(C)C(=O)[C@H](Cc2cc(F)cc(F)c2)NC(=O)NS(=O)(=O)N[C@@H](Cc2cc(F)cc(F)c2)C(=O)N(C)c2cnc(CC)nc2)cn1` [Example 208], the concentration giving a half-maximal response (EC50) in data set [1] (setting [3]) turned out to be 16 µM. Further, the CC50 at 4 days in data set [2] amounted to 37.7 µM.
`Cc1ncc(N(C)C(=O)[C@H](Cc2cc(F)cc(F)c2)NC(=O)NS(=O)(=O)N[C@@H](Cc2cc(F)cc(F)c2)C(=O)N(C)c2cnc(C)nc2)cn1` [Example 207]: in data set [1] (setting [3]), the EC50 turned out to be 25 µM. Besides, the CC50 at 4 days in data set [2] is at least 25 µM.
Take `CN(C(=O)[C@H](Cc1cc(F)cc(F)c1)NC(=O)/C=C\C(=O)N[C@@H](Cc1cc(F)cc(F)c1)C(=O)N(C)c1ccc2scnc2c1)c1ccc2scnc2c1` [Example 128]: the EC50 in data set [1] (setting [3]) came out at 0.08 µM. Moreover, the CC50 at 4 days in data set [2] came to 12.6 µM.
`Cc1cc(N(C)C(=O)[C@H](Cc2ccccc2)NC(=O)NS(=O)(=O)N[C@@H](Cc2ccccc2)C(=O)N(C)c2ccc(C#N)c(C)c2)ccc1C#N` [Example 228]: the EC50 in data set [1] (setting [3]) was 2.74 µM. In addition, the CC50 at 4 days in data set [2] was 93.5 µM.
`C=CCN(C(=O)[C@H](Cc1cc(F)cc(F)c1)NS(=O)(=O)c1ccccc1S(=O)(=O)N[C@@H](Cc1cc(F)cc(F)c1)C(=O)N(CC=C)c1ccc(OC)cc1)c1ccc(OC)cc1` [Example 193]: the EC50 in data set [1] (setting [3]) is 1.74 µM. The molecule further gave a CC50 at 4 days in data set [2] of at least 33.3 µM.
The like results for `COc1ccc(N(C)C(=O)[C@H](Cc2ccccc2)NC(=O)c2cccc(C(=O)N[C@@H](Cc3ccccc3)C(=O)N(C)c3ccc(OC)cc3)n2)cc1` [Example 39] were, in that order, 0.95 µM and at least 33.3 µM.
The like results for `CN(C(=O)[C@H](Cc1cc(F)cc(F)c1)NC(=O)NS(=O)(=O)N[C@@H](Cc1cc(F)cc(F)c1)C(=O)N(C)c1ccc(N2CCOCC2)cc1)c1ccc(N2CCOCC2)cc1` [Example 183] were, in that order, 0.09 µM and 78.9 µM.
As to `COc1ccc(N(C)C(=O)[C@H](Cc2ccccc2)NC(=O)Cn2c(=O)n(CC(=O)N[C@@H](Cc3ccccc3)C(=O)N(C)c3ccc(OC)cc3)c3cc(Cl)ccc32)cc1` [Example 71], in data set [1] (setting [3]), the EC50 was 0.08 µM. Besides, half-maximal cytotoxicity in data set [2] (CC50 at 4 days) was put at 6.5 µM.

As a reminder, the EC50 is the concentration at which the effect is half-maximal. As a reminder, the CC50 is the concentration at which the toxic effect on the cells reaches its halfway point. A low value points to harm at low concentration.

For the origin of these results see patent publication US20180072997A1, “INHIBITORS OF HUMAN IMMUNODEFICIENCY VIRUS REPLICATION” (ViiV HEATHCARE UK (NO.5) LIMITED, priority 2015, published 2018).
